# Measurements as given in ChEMBL document CHEMBL1201862, “PubChem BioAssay data set” (2004).
# Active and inactive are the calls of the source.
# Key:
# Cytochrome P450 2D6 = Cytochrome P450 2D6 (Homo sapiens, UniProt P10635);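 note: CYP2D6 member of a cytochrome P450 panel assay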
# [1] = target: FAD-linked sulfhydryl oxidase ALR (Homo sapiens, UniProt P55789); assay: ALR-catalysed DTT oxidation blockers – biochemical, H2O2 detection, luminescence, cherry-pick, dose response (AID 493248)
# cells = type: functional
# Cytochrome P450 2C19 = Cytochrome P450 2C19 (Homo sapiens, UniProt P33261); assay: Cytochrome panel assay with activity outcomes. Panel member name: p450-cyp2c19 Compounds with AC50 equal or less than 10 uM are considered active; type: functional; conditions: read-out: AC50
# [2] = Luminescence Cell-Based Dose Retest to Confirm Inhibitors of Cancer Stem Cells. [Related pubchem assays (depositor defined):AID2717, AID2721]; type: functional; conditions: Homo sapiens
# [3] = alpha-synuclein stem-loop luciferase translation blockers – H4 neuroglioma cells, luminescence, confirmation (AID 1988); type: functional, cell-based
# [4] = Luminescence Cell-Based Dose Response HTS to Identify Inhibitors of 5'UTR Stem-Loop Driven Prion Protein mRNA Translation in H4 Neuroglioblastoma Cells. [Related pubchem assays: 1827 (Project Summary), 1813 (Primary HTS)]; type: functional
# [5] = luciferase reporter signal suppression in cells – H4 neuroglioma cells, luminescence, dose response (AID 1990); type: functional, cell-based
# Streptokinase A = target: T1, Streptokinase A (Streptococcus pyogenes serotype M1, UniProt P10520); assay: viability-normalized secreted streptokinase activity reduction – plasminogen activation absorbance, OD405, dose response (AID 1914); type: functional, Streptococcus pyogenes M1 GAS;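 note: secreted streptokinase activity via plasminogen activation per viability signal from cell pellet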
# T1 sequence (P10520 whole entry): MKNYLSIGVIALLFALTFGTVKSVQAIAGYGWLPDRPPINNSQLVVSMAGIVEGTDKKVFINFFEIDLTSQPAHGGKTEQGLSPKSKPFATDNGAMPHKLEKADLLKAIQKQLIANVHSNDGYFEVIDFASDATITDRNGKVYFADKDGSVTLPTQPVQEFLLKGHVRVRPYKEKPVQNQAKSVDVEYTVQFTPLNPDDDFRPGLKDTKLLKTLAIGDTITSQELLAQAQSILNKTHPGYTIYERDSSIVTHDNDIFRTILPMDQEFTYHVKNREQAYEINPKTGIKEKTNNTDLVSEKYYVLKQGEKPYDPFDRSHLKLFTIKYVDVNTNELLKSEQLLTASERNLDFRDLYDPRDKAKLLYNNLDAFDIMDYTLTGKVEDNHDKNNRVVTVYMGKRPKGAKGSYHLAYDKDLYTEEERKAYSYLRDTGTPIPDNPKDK
# [6] = system: Streptococcus sp. 'group A'; assay: Streptococcus pyogenes SK(-)GAS viability under kanamycin – luminescence, BacTiterGlo, confirmation, counter-screen for streptokinase expression inhibitor project, dose response (AID 1900); type: functional, organism-based
# Streptococcus = assay: GAS UMAA2166 growth inhibition – luminescence, BacTiterGlo, counter-screen for streptokinase expression inhibitor project, dose response (AID 1915); type: functional, organism-based;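 note: potency for reduction of bacterial viability or growth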
# [7] = target: T2, Heat shock factor protein 1 (Mus musculus, UniProt P38532); assay: enhancement of HSF1-driven luciferase signal – cell-based, NIH3T3, luminescence, dose retest, confirmation (AID 435004); type: functional;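 note: stress induced by proteasome inhibitor MG132 added 30 min after compound; luciferase reporter driven by HSF1 response element in NIH3T3 cells; actives raise luminescence as potentiators of the MG132 stress response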
# T2 sequence (P38532 whole entry): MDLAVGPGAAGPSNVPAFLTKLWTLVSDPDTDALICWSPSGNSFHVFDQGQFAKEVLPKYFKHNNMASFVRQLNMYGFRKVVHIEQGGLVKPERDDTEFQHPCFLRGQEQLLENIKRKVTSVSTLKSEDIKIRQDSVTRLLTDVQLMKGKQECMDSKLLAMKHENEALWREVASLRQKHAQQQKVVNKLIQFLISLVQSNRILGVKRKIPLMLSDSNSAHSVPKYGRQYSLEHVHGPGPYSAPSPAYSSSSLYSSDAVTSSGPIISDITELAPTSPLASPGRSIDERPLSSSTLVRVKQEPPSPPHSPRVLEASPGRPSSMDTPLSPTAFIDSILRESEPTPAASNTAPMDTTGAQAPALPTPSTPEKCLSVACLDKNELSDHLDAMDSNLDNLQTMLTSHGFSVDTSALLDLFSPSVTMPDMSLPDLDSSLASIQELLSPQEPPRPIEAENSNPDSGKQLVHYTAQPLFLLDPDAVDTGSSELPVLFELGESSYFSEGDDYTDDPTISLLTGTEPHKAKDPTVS
# [8] = NIH3T3 cell viability loss – ATP luminescence, mouse fibroblasts, counter-screen, dose response (AID 2010); type: functional, cell-based;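 note: cells exposed to compound for about 90 hours before reading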
# [9] = Trypanosoma cruzi growth suppression in host cells – NIH3T3 host cells, beta-gal luminescence, confirmation (AID 2044); type: functional, cell-based;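 note: intracellular parasites grown in NIH/3T3 mouse fibroblasts as host cells; luminescent beta-galactosidase reporter signal from transgenic T. cruzi replicating inside host cells; inhibitors lower the luminescence signal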
# Sequence of Cytochrome P450 2D6 (P10635 whole entry): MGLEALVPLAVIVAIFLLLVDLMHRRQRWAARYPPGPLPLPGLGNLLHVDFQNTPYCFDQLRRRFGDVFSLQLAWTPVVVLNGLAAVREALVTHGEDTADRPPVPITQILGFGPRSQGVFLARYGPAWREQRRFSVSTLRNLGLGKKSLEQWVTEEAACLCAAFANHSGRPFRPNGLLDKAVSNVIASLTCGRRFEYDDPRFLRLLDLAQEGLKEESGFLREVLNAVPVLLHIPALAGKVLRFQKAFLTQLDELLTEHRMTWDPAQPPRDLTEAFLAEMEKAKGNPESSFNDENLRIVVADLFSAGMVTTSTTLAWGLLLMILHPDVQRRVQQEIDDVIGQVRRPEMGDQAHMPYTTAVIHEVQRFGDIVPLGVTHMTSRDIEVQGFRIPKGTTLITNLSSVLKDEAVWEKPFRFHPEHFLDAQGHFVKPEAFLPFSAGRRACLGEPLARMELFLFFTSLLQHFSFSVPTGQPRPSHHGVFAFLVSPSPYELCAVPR
# Sequence of FAD-linked sulfhydryl oxidase ALR (P55789 whole entry): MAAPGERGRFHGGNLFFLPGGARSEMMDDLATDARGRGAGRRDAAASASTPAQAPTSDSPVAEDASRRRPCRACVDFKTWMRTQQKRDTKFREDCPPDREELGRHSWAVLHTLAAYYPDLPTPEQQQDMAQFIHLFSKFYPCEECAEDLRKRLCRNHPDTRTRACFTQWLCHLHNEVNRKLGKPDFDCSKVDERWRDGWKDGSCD
# Sequence of Cytochrome P450 2C19 (P33261 whole entry): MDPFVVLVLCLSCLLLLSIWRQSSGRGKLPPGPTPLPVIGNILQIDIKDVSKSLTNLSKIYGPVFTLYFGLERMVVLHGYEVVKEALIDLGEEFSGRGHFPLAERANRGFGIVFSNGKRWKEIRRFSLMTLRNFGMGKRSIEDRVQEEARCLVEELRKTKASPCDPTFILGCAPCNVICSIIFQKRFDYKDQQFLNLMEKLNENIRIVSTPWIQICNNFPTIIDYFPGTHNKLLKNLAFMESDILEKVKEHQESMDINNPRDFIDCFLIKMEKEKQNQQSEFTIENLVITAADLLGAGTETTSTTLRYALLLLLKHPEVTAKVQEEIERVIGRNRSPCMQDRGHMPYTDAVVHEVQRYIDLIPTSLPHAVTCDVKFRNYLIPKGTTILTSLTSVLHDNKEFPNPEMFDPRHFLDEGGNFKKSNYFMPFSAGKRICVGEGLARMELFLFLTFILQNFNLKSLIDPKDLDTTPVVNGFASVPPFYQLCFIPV
smiles,measurement,setting,value
O=C(Nc1cccc(NC(=O)c2ccccc2[N+](=O)[O-])n1)c1ccccc1[N+](=O)[O-],AC50,Cytochrome P450 2D6,20 µM (inconclusive)
Nc1n[nH]c(N2CCN(c3cccc(Cl)c3)CC2)n1,AC50,[1],1.25 µM (active)
CCOC(=O)COc1ccc2c3c(c(=O)oc2c1C)CCC3,IC50,cells,> 50 µM (active)
O=C(c1csnn1)N1CCC2(CC1)CN(c1ccccc1)C2,AC50,Cytochrome P450 2D6,15.8 µM (inconclusive)
same,AC50,Cytochrome P450 2C19,39.8 µM (inconclusive)
CCOCCOC(=O)COc1ccc2c(-c3ccccc3)cc(=O)oc2c1,IC50,cells,1.77 µM (active)
Fc1cccc(-n2c(-c3cccs3)nc3nc4ccccc4nc32)c1,AC50,[2],1.69 µM (active)
CCOC(=O)CCNC(=O)c1ccc2nc(C3CCCCC3)oc2c1,IC50,cells,23.8 µM (active)
Cc1ccccc1-c1nc(N2CCNCC2)c2ccccc2n1,AC50,Cytochrome P450 2D6,20 µM (inconclusive)
CN(C)c1ncc2nc(-c3ccc(F)cc3)c(=O)n(C[C@H]3CCCO3)c2n1,AC50,Cytochrome P450 2D6,1.26 µM (inconclusive)
COc1cccc(N(C(=O)Cn2nnc(-c3cccs3)n2)C(C(=O)NC(C)C)c2ccc(C)o2)c1 (centres undefined),EC50,[3],18.8 µM (active)
same,EC50,[4],> 120 µM (not active)
same,EC50,[5],16.4 µM (active)
N#Cc1ccsc1NC(=O)CN1CCN(c2ccccc2O)CC1,AC50,[1],1.46 µM (active)
CC(C)(C)OC(=O)[C@H](Cc1ccccc1)NC(=O)c1[nH]cnc1C(=O)Nc1cccc(Cl)c1,EC50,Streptokinase A,38.3 µM (active)
same,AC50,[2],3.36 µM (active)
same,EC50,[6],3.64 µM (active)
same,EC50,Streptococcus,21.7 µM (active)
COc1cccc(Cn2c(=O)c(CCc3ccccc3)nc3cnc(N4CCN(C)CC4)nc32)c1,AC50,Cytochrome P450 2D6,20 µM (inconclusive)
Nc1nnc(SCC(=O)Nc2cccc3ccccc23)s1,EC50,[7],> 260 µM (inactive)
CN=C(S)N(Cc1ccc(Cl)cc1)Cc1cccs1,EC50,[7],> 260 µM (inactive)
CCOC(=O)c1ccc(Nc2nc(-c3cccnc3)nc3ccccc23)cc1,AC50,Cytochrome P450 2D6,10 µM (inconclusive)
Cc1c(C(=O)N2CCOCC2)c(S(=O)(=O)Nc2cccc(Br)c2)c(C)n1C,EC50,[3],15 µM (active)
same,EC50,[4],32.2 µM (active)
same,EC50,[5],> 120 µM (not active)
Cc1cc(C)c(S(=O)(=O)Nc2cccc(/C=C/C(=O)O)c2)c(C)c1,EC50,[7],> 260 µM (inactive)
Cc1ccc(Nc2c(-c3ccccc3O)nc3cnccn23)cc1,AC50,[1],0.705 µM (active)
COc1cccc(/C=C2\N=C(SC)SC2=O)c1OC,EC50,[7],241 µM (active)
COc1c(OC(C)=O)ccc(/C=C/c2ccc3cccc(OCc4ccccc4)c3n2)c1[N+](=O)[O-],AC50,[2],1.67 µM (active)
CCOC(=O)C1CCN(c2ncnc3c2c(-c2ccccc2)cn3-c2ccccc2)CC1,AC50,[2],3.11 µM (active)
same,EC50,[8],> 60 µM (not active)
same,EC50,[9],2.23 µM (active)
Cc1c(C)c(C)c(C(=O)c2ccc(NC(=O)c3ccccc3C(=O)O)cc2)c(C)c1C,AC50,[1],5.32 µM (active)
CC(=O)c1ccc(-c2ccc([C@H]3[C@@H]4C=CCC[C@@]4(C)C(=O)N3Cc3ccccc3)c(F)c2)cc1,AC50,[2],4.4 µM (active)
O=C(OCc1ccc([N+](=O)[O-])cc1)c1cc2ccccc2oc1=O,IC50,cells,23.2 µM (active)
CN(C)C(=O)c1ccc(-c2nccc(N(C)Cc3ccco3)n2)cc1,AC50,Cytochrome P450 2D6,25.1 µM (inconclusive)
same,AC50,Cytochrome P450 2C19,25.1 µM (inconclusive)
Cc1ccccc1CSc1nnc(-c2cccs2)n1Cc1ccco1,AC50,Cytochrome P450 2D6,1.12 µM (inconclusive)
CCOC(=O)c1c(NC(NC(=O)C(C)C)C(Cl)(Cl)Cl)sc2c1CCC2 (centres undefined),AC50,[2],3.39 µM (active)
CC1CCCCN1c1ccc(N)cc1C(N)=O (centres undefined),AC50,[1],11.1 µM (active)
C=CC[C@@H]1C=C[C@H](O/N=C(\C)CCN2CCCc3nc(C)c(C)cc32)[C@H](CO)O1,AC50,Cytochrome P450 2D6,3.16 µM (inconclusive)
COC(CNC(=O)C1CCCN(S(=O)(=O)c2c(C)noc2/C=C/c2cccs2)C1)OC (centres undefined),EC50,[7],110 µM (active)
COc1ccc(C(=O)Nc2cccc(/C=C/c3nc(O)c4ccccc4n3)c2)cc1,AC50,[2],3.7 µM (active)
CCN(CC(=O)Nc1sc2c(c1C#N)CCCC2)Cc1nc(O)c2ccccc2n1,EC50,[3],> 120 µM (not active)
same,EC50,[4],> 120 µM (not active)
same,EC50,[5],22.4 µM (active)
Cc1cc(C)nc(NNC(=O)c2ccccc2O)n1,AC50,[1],5.66 µM (active)
Cc1csc(NC(=O)c2cc([N+](=O)[O-])cc([N+](=O)[O-])c2)n1,IC50,cells,13.2 µM (active)
c1ccc(C(c2ccccc2)N2CCN(c3ccc4ccccc4n3)CC2)cc1,EC50,[3],> 120 µM (not active)
same,EC50,[4],> 120 µM (not active)
same,EC50,[5],16.8 µM (active)
CC(=O)N1CCN=C1SCc1cccc(C(F)(F)F)c1,AC50,[1],7.34 µM (active)
NS(=O)(=O)c1ccc(NC(S)=Nc2ccn(Cc3cccc4ccccc34)n2)cc1,EC50,[3],> 120 µM (not active)
same,EC50,[4],> 120 µM (not active)
same,EC50,[5],15.6 µM (active)
COc1ccc(OCc2nnnn2-c2ccccc2)cc1,EC50,[7],> 260 µM (inactive)
O=C(Cc1coc2cc3c(cc12)CCC3)OCC(=O)N1CCCC1=O,EC50,[3],30.1 µM (active)
same,EC50,[4],> 60 µM (not active)
same,EC50,[5],> 60 µM (not active)
Cc1ccc(Sc2ccc(S(=O)(=O)Nc3ccc(C(=O)O)cc3)cc2)cc1C,AC50,[1],20.7 µM (active)
CCOC(=O)Cn1cc(C#N)c2cccc(CC)c21,IC50,cells,4.78 µM (active)
COc1ccc(N(CC(=O)Nc2cc(C)ccc2C)S(=O)(=O)c2c(C)noc2C)cc1,AC50,[2],34.5 µM (active)
O=C(Nc1ccc(Nc2ccccc2)cc1)c1ccccc1,AC50,[2],13.7 µM (active)
O=C(c1cc2ccccc2o1)N1CCN=C1SCc1cccnc1,AC50,[1],0.095 µM (active)
O=C(CC1S/C(=N\CCc2ccccc2)N(/N=C/c2cccs2)C1=O)Nc1ccc(Cl)cc1 (centres undefined),EC50,[7],> 260 µM (inactive)
Cc1ccc(OCC(=O)N/N=C/c2cn(Cc3ccccc3)c3ccccc23)cc1,EC50,[3],5.86 µM (active)
same,EC50,[4],13.1 µM (active)
same,EC50,[5],9.88 µM (active)
CCc1nnc(N/N=C/c2ccc(N3CCC(C)CC3)c([N+](=O)[O-])c2)n1N,IC50,cells,20 µM (active)
CC1C/C(=N/NC(=O)c2cccc(F)c2)c2ccc(O)cc2C1 (centres undefined),IC50,cells,34.6 µM (active)
COc1ccc(/C=N/Nc2ccccn2)c(OC)c1OC,AC50,[1],0.484 µM (active)
COc1ccc(CCN2/C(=N/C(=O)CCC(=O)O)SC3CS(=O)(=O)CC32)cc1 (centres undefined),AC50,Cytochrome P450 2D6,39.8 µM (inconclusive)
CCOC(=O)NC(=O)/C(C#N)=N/Nc1c(F)cccc1F,EC50,[7],> 260 µM (inactive)
C/C(=N\NC(=O)c1cccc(N2CCCC2=O)c1)c1ccc(N)cc1,AC50,[1],1.61 µM (active)
